Key:
[1] = biological target: A2A adenosine receptor (A2AR*, with mutations A54L, T88A, K122A, and V239A) (Homo sapiens, UniProt P29274, A54L/K122A/T88A/V239A); experiment: Biacore kinetic analysis of antagonists binding to capture-coupled A2AR*
[2] = biological target: β1 adrenergic receptor (β1AR*, with mutations R68S, Y227A, A282L, F237A, and F338M) (Meleagris gallopavo, UniProt P07700, A282L/F327A/F338M/R68S/Y227A); experiment: biochemical; format: binding, turkey
[3] = biological target: β1 adrenergic receptor (β1AR*) (Meleagris gallopavo, UniProt P07700, A282L/F327A/F338M/R68S/Y227A); experiment: biochemical; format: binding, turkey

| Compound | kd [2] | Kd [3] | further results |
| --- | --- | --- | --- |
| CCCn1c(=O)[nH]c2nc(-c3ccc(S(=O)(=O)O)cc3)[nH]c2c1=O [PSB 1115] | – | – | Kd ([1]; A2AR, approximate value given in text for the displacement-regeneration compound): ~1 µM |
| Nc1nc2c(cnn2CCc2ccccc2)c2nc(-c3ccco3)nn12 [SCH 58261] | – | – | kd [1]: 6.6(2) × 10^−2 s^−1; ka ([1]; biacore capture-coupled a2ar*): 1.00(3) × 10^6 M^−1s^−1 |
| C=CCc1ccccc1OCC(O)CNC(C)C (centres unmarked) [alprenolol] | 2.49(7) × 10^−2 s^−1 | – | Kd [2]: 0.019 µM; ka [2]: 1.31(4) × 10^6 M^−1s^−1 |
| CC(C)NCC(O)COc1ccc(CC(N)=O)cc1 (centres unmarked) [atenolol] | – | 49.2 µM | – |
| COc1ccc(OC)c(C(O)C(C)NC(C)(C)C)c1 (centres unmarked) [butoxamine] | – | 5.15 µM | – |
| CC(C)(C)NCC(O)c1cc(Cl)c(N)c(Cl)c1 (centres unmarked) [clenbuterol] | 1.33(5) × 10^−1 s^−1 | – | Kd [2]: 0.54 µM; ka [2]: 2.47(9) × 10^5 M^−1s^−1 |
| C[C@@H](CO)NC(=O)[C@@H]1C=C2c3cccc4[nH]cc(c34)C[C@H]2N(C)C1 [ergonovine] | – | 84.1 µM | – |
| CC(CCc1ccccc1)NCC(O)c1ccc(O)c(C(N)=O)c1 (centres unmarked) [labetalol] | – | – | Kd [2]: 0.095 µM |
| CC[C@@H](CO)NC(=O)[C@@H]1C=C2c3cccc4[nH]cc(c34)C[C@H]2N(C)C1 [methylergonovine] | – | 49.6 µM | – |
| OC(CNCC(O)C1CCc2cc(F)ccc2O1)C1CCc2cc(F)ccc2O1 (centres unmarked) [nebivolol] | 1.50(3) × 10^−2 s^−1 | – | – |
| NCCc1c[nH]c2ccc(O)cc12 [serotonin] | – | 14.2 µM | – |
| CC(C)(C)NC[C@H](O)COc1nsnc1N1CCOCC1 [timolol] | 6.94(8) × 10^−3 s^−1 | – | – |
